As usually defined, the pKd is the negative decadic logarithm of the Kd, by convention in mol/L.

pKd: −log10 of the molar value. Like-named read-outs stand apart in the source and are kept apart here.

The values that follow come from patent publication US8362000B2, “Azetidinyl diamides as monoacylglycerol lipase inhibitors” (Janssen Pharmaceutica NV, priority 2009, dated 2013).

One experiment addresses T1, MGL (Rattus norvegicus, UniProt Q8R431).
T1 construct: one g rat brain was homogenized using a Polytron homogenizer; from tissue; host or cells: rat brain homogenate
T1 sequence (Q8R431 1-303): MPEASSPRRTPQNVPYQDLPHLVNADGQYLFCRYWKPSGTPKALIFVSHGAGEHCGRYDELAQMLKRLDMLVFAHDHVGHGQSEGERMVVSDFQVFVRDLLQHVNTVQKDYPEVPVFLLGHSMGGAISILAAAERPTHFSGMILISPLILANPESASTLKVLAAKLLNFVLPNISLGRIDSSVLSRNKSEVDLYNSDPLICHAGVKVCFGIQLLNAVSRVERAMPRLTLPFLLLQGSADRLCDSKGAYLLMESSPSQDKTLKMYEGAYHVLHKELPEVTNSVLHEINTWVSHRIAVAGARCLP
Briefly: 2-AG accumulation assay in rat brain homogenate. The settings on record: rat brain homogenate, 2-AG accumulation as percent of vehicle; for 2-AG accumulation, % of vehicle control at 10 µM: compound 10 μM, read-out: Rat Brain 2AG % VehCntrl (%) @ 10 μM; for 2-AG accumulation, % of vehicle control at 1 µM: compound 1 μM, read-out: Rat Brain 2AG % VehCntrl (%) @ 1 μM. The experiment is classed as biochemical.

The target in the next experiment is T2, mutant MGL (Homo sapiens, UniProt Q99685, L169S/L176S).
T2 sequence (Q99685 1-303 L169S/L176S): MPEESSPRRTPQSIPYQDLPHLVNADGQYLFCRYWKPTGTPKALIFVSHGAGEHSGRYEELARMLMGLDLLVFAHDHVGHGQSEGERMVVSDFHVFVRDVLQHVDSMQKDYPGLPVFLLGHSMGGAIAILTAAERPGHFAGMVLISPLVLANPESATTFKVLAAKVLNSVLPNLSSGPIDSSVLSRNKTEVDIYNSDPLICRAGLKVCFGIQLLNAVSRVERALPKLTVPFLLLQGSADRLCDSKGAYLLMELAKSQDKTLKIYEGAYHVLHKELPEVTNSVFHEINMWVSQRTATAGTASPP
Description: MGL ThermoFluor assay - mutant. The experiment is classed as binding. The settings on record: for pKd: read-out: MGL mutant ThermoFluor Kd. On the technique in general: DSF heats the sample and reads unfolding from a dye or from intrinsic fluorescence.

Setting [1] is: ThermoFluor concentration-response.
The mark [2] stands for this setting: ThermoFluor thermal stability binding assay.

With `O=C(c1ccccc1)N1CCN(C2CN(C(=O)c3ccc(SCc4cccc(Cl)c4)cc3)C2)CC1` [Cpd 410, 1-[1-({4-[(3-Chlorobenzyl)sulfanyl]phenyl}carbonyl)azetidi-3-yl]-4-(phenylcarbonyl)piperazine], the 2-AG accumulation, % of vehicle control at 10 µM at MGL worked out at 720%. Also, on mutant MGL (setting [1]), the pKd was 7.48.
Take `Cc1cc(C(=O)N2CC(N3CCN(C(=O)c4ccccc4)CC3)C2)ccc1-c1ccccc1` [Cpd 613]: on MGL, the 2-AG accumulation, % of vehicle control at 1 µM was found to be 165%. Besides, at mutant MGL (setting [1]), the pKd is 7.29.
`O=C(c1ccc(-c2ccccc2)cc1)N1CC(N2CCN(C(=O)c3ccc(Cl)o3)CC2)C1` [Cpd 312, 1-[1-(Biphenyl-4-ylcarbonyl)azetidin-3-yl]-4-[(5-chlorofuran-2-yl)carbonyl]piperazine]: at MGL, the 2-AG accumulation, % of vehicle control at 1 µM was determined as 198%. Moreover, the pKd at mutant MGL (setting [2]) was 7.60.
`O=C(c1ccccc1)N1CCN(C2CN(C(=O)c3sc4cc(F)ccc4c3Cl)C2)CC1` [Cpd 543]: the 2-AG accumulation, % of vehicle control at 1 µM on MGL worked out at 158%. The pKd on mutant MGL (setting [2]) was 7.42.
Taken in the same sequence, the figures for `O=C(c1ccc2c(c1)CCCN2Cc1ccccc1)N1CC(N2CCN(C(=O)c3nccs3)CC2)C1` [Cpd 370, 1-Benzyl-6-({3-[4-(1,3-thiazol-2-ylcarbonyl)piperazin-1-yl]azetidin-1-yl}carbonyl)-1,2,3,4-tetrahydroquinoline] were 888% and 9.00.
For `O=C(c1ccccc1)N1CCN(C2CN(C(=O)c3ccc(-c4ccc(F)c(Cl)c4)cc3Cl)C2)CC1` [Cpd 267, 1-{1-[(3,3′-Dichloro-4′-fluorobiphenyl-4-yl)carbonyl]azetidin-3-yl}-4-(phenylcarbonyl)piperazine], in that order: 130% and 7.90.
As to `O=C(c1ccc(Sc2cccc(Cl)c2)cc1)N1CC(N2CCN(C(=O)c3nccs3)CC2)C1` [Cpd 428], the 2-AG accumulation, % of vehicle control at 1 µM at MGL was determined as 734%. Besides, the pKd at mutant MGL (setting [1]) was 8.48.
Regarding `O=C(c1ccc2c(cnn2-c2cccc(F)c2)c1)N1CC(N2CCN(C(=O)c3nccs3)CC2)C1` [Cpd 1110], the 2-AG accumulation, % of vehicle control at 1 µM on MGL amounted to 807%. The Kd at mutant MGL (ThermoFluor, compound concentration measured by qNMR, read-out: MGL mutant ThermoFluor qKd (μM) (using qNMR conc.)) is 0.01 µM.
For `Cc1oc(-c2ccccc2)cc1C(=O)N1CC(N2CCN(C(=O)c3nccs3)CC2)C1` [Cpd 1378], the 2-AG accumulation, % of vehicle control at 1 µM at MGL came out at 493%. In addition, the pKd on mutant MGL (setting [2]) is 7.60.
For `Cc1cc(C(=O)N2CC(N3CCN(C(=O)c4ccccc4)CC3)C2)ccc1-c1cccc(C(F)(F)F)c1` [Cpd 243, 1-(1-{[2-Methyl-3′-(trifluoromethyl)biphenyl-4-yl]carbonyl}azetidin-3-yl)-4-(phenylcarbonyl)piperazine], the 2-AG accumulation, % of vehicle control at 1 µM on MGL came to 120%. Moreover, the pKd on mutant MGL (setting [2]) is 7.78.
With `O=C(c1ccc(OCc2cccc(Cl)c2)c(Cl)c1)N1CC(N2CCN(C(=O)c3nccs3)CC2)C1` [Cpd 401, 1-[1-({3-Chloro-4-[(3-chlorobenzyl)oxy]phenyl}carbon-yl)azetidin-3-yl]-4-(1,3-thiazol-2-ylcarbonyl)piperazine], the 2-AG accumulation, % of vehicle control at 10 µM on MGL was found to be 762%. Besides, the pKd on mutant MGL (setting [2]) was 8.78.
Regarding `O=C(c1ccc(SCc2cccnc2)cc1)N1CC(N2CCN(C(=O)c3nccs3)CC2)C1` [Cpd 416], the 2-AG accumulation, % of vehicle control at 1 µM at MGL was determined as 228%. The pKd at mutant MGL (setting [1]) was 6.80.
As for `O=C(c1cc2c(C(F)(F)F)cccc2s1)N1CC(N2CCN(C(=O)c3nccs3)CC2)C1` [Cpd 327, 1-(1,3-Thiazol-2-ylcarbonyl)-4-(1-{[4-(trifluoromethyl)-1-benzothiophen-2-yl]carbonyl}azetidin-3-yl)piperazine], at MGL, the 2-AG accumulation, % of vehicle control at 1 µM amounted to 904%. Further, at mutant MGL (setting [2]), the pKd is 7.86.
For the compound `O=C(c1nccs1)N1CCN(C2CN(C(=O)c3cc(-c4ccccc4)oc3C(F)(F)F)C2)CC1` [Cpd 1379], on MGL, the 2-AG accumulation, % of vehicle control at 1 µM came to 282%. The pKd on mutant MGL (setting [2]) is 7.38.
On to `O=C(c1ccc(-c2ccccc2)cc1)N1CC(N2CCN(C(=O)c3ccco3)CC2)C1` [Cpd 6, 1-[1-(Biphenyl-4-ylcarbonyl)azetidin-3-yl]-4-(furan-2-ylcarbonyl)piperazine], for which, on MGL (compound 0.01 μM, read-out: Rat Brain 2AG % VehCntrl (%) @ 0.01 μM), the 2-AG accumulation, % of vehicle control at 0.01 µM was found to be 75%. Also, the 2-AG accumulation, % of vehicle control at 0.1 µM at MGL (compound 0.1 μM, read-out: Rat Brain 2AG % VehCntrl (%) @ 0.1 μM) worked out at 238%. In addition, on MGL, the 2-AG accumulation, % of vehicle control at 1 µM worked out at 554% and the 2-AG accumulation, % of vehicle control at 10 µM stood at 623%. In addition, the pKd at mutant MGL (setting [1]) was 8.44.
With `O=C(c1nccs1)N1CCN(C2CN(C(=O)c3ccc(-c4ccccc4)cc3F)C2)CC1` [Cpd 1405, 1-{1-[(3-Fluorobiphenyl-4-yl)carbonyl]azetidin-3-yl}-4-(1,3-thiazol-2-ylcarbonyl)piperazine], the 2-AG accumulation, % of vehicle control at 1 µM on MGL came out at 197%. Besides, at mutant MGL (setting [1]), the pKd was 8.70.
For `O=C(c1ccc(CNc2cccc(Cl)c2)cc1)N1CC(N2CCN(C(=O)c3cscn3)CC2)C1` [Cpd 969], in that order: 515% and 7.16.
Take `Cc1cc(C(=O)N2CC(N3CCN(C(=O)c4ccccc4)CC3)C2)ccc1-c1ccc(Cl)c(C(F)(F)F)c1` [Cpd 260, 1-(1-{[4′-Chloro-2-methyl-3′-(trifluoromethyl)biphenyl-4-yl]carbonyl}azetidin-3-yl)-4-(phenylcarbonyl)piperazine]: the 2-AG accumulation, % of vehicle control at 1 µM on MGL was determined as 140%. For the same compound, the pKd at mutant MGL (setting [2]) is 7.70.
For the compound `O=C(c1ccccc1)N1CCN(C2CN(C(=O)c3ccc(-c4ccccc4)cc3Cl)C2)CC1` [Cpd 612], the 2-AG accumulation, % of vehicle control at 1 µM at MGL is 106%. Moreover, the pKd on mutant MGL (setting [1]) was 7.11.
Take `O=C(c1ccccc1)N1CCN(C2CN(C(=O)c3ccc(OCc4ccc(Cl)c(Cl)c4)cc3)C2)CC1` [Cpd 379, 1-[1-({4-[(3,4-dichlorobenzyl)oxy]phenyl}carbonyl)azetidin-3-yl]-4-(phenylcarbonyl)piperazine]: the 2-AG accumulation, % of vehicle control at 10 µM at MGL came out at 760%. In addition, the pKd at mutant MGL (setting [2]) is 7.40.
As to `Cc1nc(COc2ccc(Cl)cc2)sc1C(=O)N1CC(N2CCN(C(=O)c3nccs3)CC2)C1` [Cpd 965], at MGL, the 2-AG accumulation, % of vehicle control at 1 µM was determined as 591%. Further, the pKd on mutant MGL (setting [1]) is 7.46.
In the case of `O=C(c1ccc(Oc2ccc(Cl)c(Cl)c2)cc1)N1CC(N2CCN(C(=O)c3nccs3)CC2)C1` [Cpd 423, 1-(1-{[4-(3,4-Dichlorophenoxy)phenyl]carbonyl}azetidin-3-yl)-4-(1,3-thiazol-2-ylcarbonyl)piperazine], on MGL, the 2-AG accumulation, % of vehicle control at 1 µM worked out at 529%. Moreover, at mutant MGL (setting [1]), the pKd was 8.16.
`O=C(c1ccc(-c2ccc(F)cc2F)cc1)N1CC(N2CCN(C(=O)c3cscn3)CC2)C1` [Cpd 226, 1-{1-[(2′,4′-Difluorobiphenyl-4-yl)carbonyl]azetidin-3-yl}-4-(1,3-thiazol-4-ylcarbonyl)piperazine]: the 2-AG accumulation, % of vehicle control at 10 µM on MGL is 652%. The pKd at mutant MGL (setting [2]) is 7.70.
Regarding `O=C(c1ccccc1)N1CCN(C2CN(C(=O)c3ccc(-c4ccc(Br)cc4)cc3)C2)CC1` [Cpd 83, 1-{1-[(4′-Bromobiphenyl-4-yl)carbonyl]azetidin-3-yl}-4-(phenylcarbonyl)piperazine], the 2-AG accumulation, % of vehicle control at 1 µM on MGL was determined as 105%. In addition, the pKd at mutant MGL (setting [1]) is 6.95.
Regarding `O=C(c1ccc(C(F)(F)c2ccccc2)cc1)N1CC(N2CCN(C(=O)c3nccs3)CC2)C1` [Cpd 986, 1-[1-({4-[Difluoro(phenyl)methyl]phenyl}carbonyl)azetidin-3-yl]-4-(1,3-thiazol-2-ylcarbonyl)piperazine], the 2-AG accumulation, % of vehicle control at 1 µM on MGL stood at 626%. On mutant MGL (setting [1]), the pKd was 8.30.
Turning to `O=C(c1ccc2c(ccn2-c2ncc(F)cn2)c1)N1CC(N2CCN(C(=O)c3nccs3)CC2)C1` [Cpd 1147, 1-(5-Fluoropyrimidin-2-yl)-5-({3-[4-(1,3-thiazol-2-ylcarbonyl)piperazin-1-yl]azetidin-1-yl}carbonyl)-1H-indole], on MGL, the 2-AG accumulation, % of vehicle control at 1 µM stood at 892%. For the same compound, the pKd at mutant MGL (setting [1]) is 8.52.
For `O=C(c1ccccc1)N1CCN(C2CN(C(=O)c3ccc(COc4cccc(Cl)c4)cc3)C2)CC1` [Cpd 548], in that order: 280% and 7.21.
As to `CN(c1ccccc1)c1ccc(C(=O)N2CC(N3CCN(C(=O)c4ccccc4)CC3)C2)cc1` [Cpd 40, N-Methyl-N-phenyl-4-({3-[4-(phenylcarbonyl)piperazin-1-yl]azetidin-1-yl}carbonyl)aniline], the 2-AG accumulation, % of vehicle control at 10 µM at MGL was 490%. Also, the pKd on mutant MGL (setting [1]) was 7.62.
As for `O=C(/C=C/c1ccc(SC(F)(F)F)cc1)N1CC(N2CCN(C(=O)c3cscn3)CC2)C1` [Cpd 648], the 2-AG accumulation, % of vehicle control at 1 µM on MGL was determined as 126%. On mutant MGL (setting [1]), the pKd is 6.84.
